Source: PMC8234462, “Novel Cyclophilin Inhibitor Decreases Cell Proliferation and Tumor Growth in Models of Hepatocellular Carcinoma” (Cancers, 2021)
pIC50: −log10 of the molar value.

Key:
iPS cardiomyocytes = experiment: Cytotoxicity, CellTiter Glo; format: cell-based; conditions: Homo sapiens, Cardiomyocyte, 72 h, 3 days of treatment, read-out: IC50 (50% reduction in cell viability)
Method: The evaluation of the off-target effects of NV651 was performed by ImQuest BioSciences Inc. (Frederick, MD, USA) by analyzing the cytotoxicity in a panel of primary cells. NV651 was evaluated at a concentration of 30 µM and five serial half-logarithmic dilutions in triplicate. The positive control compounds for each cell type were purchased from Sigma-Aldrich (St. Louis, MO, USA) and were as follows: Unstimulated human peripheral blood mononuclear cells (PBMCs), phytohemagglutinin (PHA)-stimulated PBMCs, monocytes/macrophages, dendritic cells, hepatocytes, induced pluripotent stem cell (iPS) neurons: […] AZT, kidney cells (RPTEC): cisplatin and iPS cardiomyocytes: Doxazosin. iPS cardiomyocytes (Cellular Dynamics, Madison, WI, USA) were seeded in a 96-well plate precoated with 0.1% gelatin (Sigma-Aldrich, St. Louis, MO, USA) in a plating medium (Cellular dynamics, Madison, WI, USA) at a concentration of 1.5 × 10^4 cells/well. After 48 h of incubation, cells were washed, and NV651 diluted in the maintenance medium (Cellular Dynamics, Madison, WI, USA) was added. After 3 days of incubation, cell viability was measured with CellTiter Glo (Promega, Madison, WI, USA). CellTiter Glo was performed to evaluate cell viability. CellTiter Glo Luminescent Cell Viability Assay (Promega, Madison, WI, USA) was performed according to the manufacturer’s instructions.

HEPG2 = experiment: Clonogenic assay; format: cell-based, human; conditions: continuously treated 14 days, crystal violet
Method: (§1) Cells were seeded at 2500/mL and, starting 24 h later, provided with fresh medium and NV651 every day for the following 14 days. Then, colonies were stained with crystal violet, which was subsequently dissolved in 10% acetic acid and quantified by a spectrophotometer by absorbance at 595 nm.

Huh-7D12 = experiment: Clonogenic assay; format: cell-based, human; conditions: continuously treated 14 days, crystal violet
Method: as §1

Hep3B = experiment: Clonogenic assay; format: cell-based, human; conditions: continuously treated 14 days, crystal violet
Method: as §1

PLC/PRF/5 = experiment: Clonogenic assay; format: cell-based, human; conditions: continuously treated 14 days, crystal violet
Method: as §1

Cyp40 = Cyp40 (Homo sapiens, UniProt Q08752); experiment: PPIase activity assay (chymotrypsin-coupled); format: biochemical; conditions: free-cell assay; Cyp equilibrated 1 h at 5 °C with inhibitor; read-out: absolute IC50, PPIase activity Cyp40
Cyp40, sequence (Q08752 whole entry): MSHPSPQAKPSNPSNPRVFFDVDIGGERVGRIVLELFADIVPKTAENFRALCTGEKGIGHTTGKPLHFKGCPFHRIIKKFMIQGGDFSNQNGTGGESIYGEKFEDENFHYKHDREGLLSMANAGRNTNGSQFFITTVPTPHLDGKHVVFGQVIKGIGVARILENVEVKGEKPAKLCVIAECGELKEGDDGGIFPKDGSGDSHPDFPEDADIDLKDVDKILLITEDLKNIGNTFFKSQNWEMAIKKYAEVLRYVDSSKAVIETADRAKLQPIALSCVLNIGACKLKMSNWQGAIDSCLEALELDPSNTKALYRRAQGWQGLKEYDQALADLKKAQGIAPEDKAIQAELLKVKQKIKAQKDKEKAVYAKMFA
Method: (§2) The PPIase activity of CypA, CypB, CypD and Cyp40 was determined by following the rate of hydrolysis of N-succinyl-Ala-Ala-Pro-Phe-p-nitroanilide by chymotrypsin, a digestive enzyme that only hydrolyzes the trans form of the peptide. Therefore, the hydrolysis of the cis form, the concentration of which is maximized by using a stock dissolved in trifluoroethanol containing 470-mM LiCl, is only possible with the isomerization from the cis to the trans form. […] The reaction was started with the peptide addition, and the change in absorbance was monitored spectrophotometrically at a 6-s interval for 6 min. The blank rates of hydrolysis (in the absence of Cyps) were subtracted from the rates in the presence of Cyps. The initial rates of the enzymatic reaction were analyzed by a first-order regression analysis of the time course of the change in absorbance.

CypD = CypD (Homo sapiens, UniProt P30405); experiment: PPIase activity assay (chymotrypsin-coupled); format: biochemical; conditions: free-cell assay; Cyp equilibrated 1 h at 5 °C with inhibitor; read-out: absolute IC50, PPIase activity CypD
CypD, sequence (P30405 30-207): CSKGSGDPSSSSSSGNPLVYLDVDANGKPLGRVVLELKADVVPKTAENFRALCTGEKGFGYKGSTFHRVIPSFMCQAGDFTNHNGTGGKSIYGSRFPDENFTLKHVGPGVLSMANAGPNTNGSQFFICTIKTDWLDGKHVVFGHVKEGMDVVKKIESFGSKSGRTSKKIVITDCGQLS
Method: as §2

CypB = CypB (Homo sapiens, UniProt P23284); experiment: PPIase activity assay (chymotrypsin-coupled); format: biochemical; conditions: free-cell assay; Cyp equilibrated 1 h at 5 °C with inhibitor; read-out: absolute IC50, PPIase activity CypB
CypB, sequence (P23284 34-216): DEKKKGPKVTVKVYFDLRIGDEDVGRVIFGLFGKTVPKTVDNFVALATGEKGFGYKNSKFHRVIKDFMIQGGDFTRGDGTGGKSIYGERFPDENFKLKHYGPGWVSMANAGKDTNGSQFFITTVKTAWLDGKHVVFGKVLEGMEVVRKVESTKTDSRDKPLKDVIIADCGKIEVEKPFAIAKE
Method: as §2

CypA = CypA (Homo sapiens, UniProt P62937); experiment: PPIase activity assay (chymotrypsin-coupled); format: biochemical; conditions: free-cell assay; Cyp equilibrated 1 h at 5 °C with inhibitor; read-out: absolute IC50, PPIase activity CypA
CypA, sequence (P62937 whole entry): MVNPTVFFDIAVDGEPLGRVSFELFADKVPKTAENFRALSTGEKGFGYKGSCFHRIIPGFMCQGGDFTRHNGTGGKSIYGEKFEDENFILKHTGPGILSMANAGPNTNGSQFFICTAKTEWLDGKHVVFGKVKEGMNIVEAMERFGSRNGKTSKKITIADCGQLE
Method: as §2

CC(=O)CCC1C(=O)NC(C(C)C)C(=O)NC(Cc2cc(O)cc(F)c2)C(=O)N2CCCC(N2)C(=O)OC(C(C)=CC=CC(=O)OC(C)(C)C)CC=CC=CC(O)C(C)C1O (stereo not drawn) [NV651]
pIC50 (iPS cardiomyocytes): < 4.52 | number of colonies (HEPG2): reduced the number of colonies | number of colonies (Huh-7D12): reduced the number of colonies | number of colonies (Hep3B): reduced the number of colonies | number of colonies (PLC/PRF/5): reduced the number of colonies | pIC50 (Cyp40): 9.09 | pIC50 (CypD): 9.07 | pIC50 (CypB): 9.08 | pIC50 (CypA): 9.31
